Experimental data reported in patent US20230357179A1, “RAF KINASE INHIBITORS AND METHODS OF USE THEREOF” (Deciphera Pharmaceuticals, LLC, priority 2021, published 2023).

Legend:
[1] = target: T1, A-Raf kinase (Homo sapiens, UniProt P10398, Y301D/Y302D); assay: Biochemical assay for A-Raf.1 (coupled pyruvate kinase/lactate dehydrogenase); conditions: read-out: ARAF.1 IC50
T1 construct: purchased Sigma
Procedure: Biochemical assay for A-Raf.1
(§1) Activity of A-Raf kinase (SEQ. ID NO. 1) was determined spectroscopically using a coupled pyruvate kinase/lactate dehydrogenase assay that continuously monitors the ATP hydrolysis-dependent oxidation of NADH (e.g., Schindler et al., Science, 2000, 289, 1938-1942). Assays were conducted in 384-well plates (100 μL final volume) using 5.55 nM A-Raf (Sigma), 1.5 units pyruvate kinase, 2.1 units lactate dehydrogenase, 1 mM phosphoenol pyruvate, 0.28 mM NADH, 30.1 nM MEK (SignalChem), and 1 mM ATP in assay buffer (100 mM Tris, pH 7.5, 15 mM MgCl2, 0.5 mM DTT, 0.1% octyl-glucoside, 0.002% (w/v) BSA, and 0.002% Triton X-100). Inhibition of A-Raf was measured by adding serial diluted test compound (final assay concentration of 1% DMSO). A decrease in absorption at 340 nm was monitored continuously for 6 h at 30° C. on a multi-mode microplate reader (BioTek). The reaction rate was calculated using the 4 to 5 h time frame. The reaction rate at each concentration of compound was converted to percent inhibition using controls (i.e., reaction with no test compound and reaction with a known inhibitor) and IC50 values were calculated by fitting a four-parameter sigmoidal curve to the data using Prism (GraphPad software).

[2] = target: T2, B-Raf kinase (Homo sapiens, UniProt P15056); assay: Biochemical assay for B-Raf.1 (coupled pyruvate kinase/lactate dehydrogenase); conditions: read-out: BRAF.1 IC50
T2 construct: GST (N); purchased Sigma
T2 sequence (P15056 416-766): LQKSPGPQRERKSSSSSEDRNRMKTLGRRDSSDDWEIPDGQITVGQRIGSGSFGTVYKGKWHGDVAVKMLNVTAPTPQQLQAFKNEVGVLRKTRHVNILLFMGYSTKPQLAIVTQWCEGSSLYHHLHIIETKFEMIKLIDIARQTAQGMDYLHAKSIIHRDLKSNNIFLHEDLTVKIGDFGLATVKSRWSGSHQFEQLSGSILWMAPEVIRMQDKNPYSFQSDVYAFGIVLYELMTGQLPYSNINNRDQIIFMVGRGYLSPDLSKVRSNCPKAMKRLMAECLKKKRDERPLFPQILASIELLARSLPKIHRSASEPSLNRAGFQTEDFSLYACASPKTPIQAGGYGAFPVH
Procedure: Biochemical Assay for B-Raf.1
as §1, with “B-Raf” for “A-Raf”, “NO: 2)” for “NO. 1)”, “0.13” for “5.55”

[3] = target: T3, C-Raf kinase (Homo sapiens, UniProt P04049, Y340D/Y341D); assay: Biochemical assay for C-Raf.1 (coupled pyruvate kinase/lactate dehydrogenase); conditions: read-out: CRAF.1 IC50
T3 construct: Y340D,; GST (N); purchased Sigma
T3 sequence (P04049 307-648 Y340D/Y341D): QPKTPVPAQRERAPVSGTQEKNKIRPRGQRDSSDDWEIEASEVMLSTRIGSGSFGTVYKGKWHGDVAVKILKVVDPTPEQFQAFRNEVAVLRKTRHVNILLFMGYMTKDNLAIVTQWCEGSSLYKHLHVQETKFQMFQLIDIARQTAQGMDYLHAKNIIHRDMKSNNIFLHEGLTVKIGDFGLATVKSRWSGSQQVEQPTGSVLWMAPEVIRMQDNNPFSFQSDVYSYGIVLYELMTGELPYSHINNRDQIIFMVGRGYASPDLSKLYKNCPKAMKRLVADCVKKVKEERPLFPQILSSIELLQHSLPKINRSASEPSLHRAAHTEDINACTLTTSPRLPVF
Procedure: Biochemical Assay for C-Raf.1
as §1, with “C-Raf” for “A-Raf”, “NO: 3)” for “NO. 1)”, “0.43” for “5.55”

[4] = target: T4, B-Raf (V600E) kinase (Homo sapiens, UniProt P15056, V600E); assay: Biochemical assay for B-Raf (V600E).1 (coupled pyruvate kinase/lactate dehydrogenase); conditions: read-out: BRAF V600E.1 IC50
T4 construct: B-Raf (V600E) residues 416-766 with a; GST (N); purchased SignalChem
T4 sequence (P15056 416-766 V600E): as the sequence (P15056 416-766) above, with V185E counted along it
Procedure: Biochemical Assay for B-Raf (V600E).1
Activity of B-Raf (V600E) (SEQ. ID NO: 4) kinase was determined spectroscopically using a coupled pyruvate kinase/lactate dehydrogenase assay that continuously monitors the ATP hydrolysis-dependent oxidation of NADH (e.g., Schindler et al., Science, 2000, 289, 1938-1942). Assays were conducted in 384-well plates (100 μL final volume) using 0.03 nM B-Raf (SignalChem), 1.5 units pyruvate kinase, 2.1 units lactate dehydrogenase, 1 mM phosphoenol pyruvate, 0.28 mM NADH, 30.1 nM MEK (SignalChem), and 1 mM ATP in assay buffer (100 mM Tris, pH 7.5, 15 mM MgCl2, 0.5 mM DTT, 0.1% octyl-glucoside, 0.002% (w/v) BSA, and 0.002% Triton X-100). Inhibition of B-Raf (V600E) was measured by adding serial diluted test compound (final assay concentration of 1% DMSO). A decrease in absorption at 340 nm was monitored continuously for 6 h at 30° C. on a multi-mode microplate reader (BioTek). The reaction rate was calculated using the 3 to 4 h time frame. The reaction rate at each concentration of compound was converted to percent inhibition using controls (i.e., reaction with no test compound and reaction with a known inhibitor) and IC50 values were calculated by fitting a four-parameter sigmoidal curve to the data using Prism (GraphPad software).

[5] = test system: A375 cells; assay: A375 cell proliferation assay (1), resazurin, 96-well; type: cell-based; conditions: Homo sapiens, A-375, inhibition of cell proliferation
Procedure: A375 Cell Proliferation Assay (1)
A375 cells (catalog (#CRL-1619) are obtained from the American Type Culture Collect (ATTC, Manassas, VA). Briefly, cells were grown in DMEM High Glucose supplemented with 10% characterized fetal bovine serum (Invitrogen, Carlsbad, CA) and 1% Penicillin/Streptomycin/L-Glutamine at 37° C., 5% CO2, and 95% humidity. Cells are expanded until reaching 70-95% confluency at which point they are sub-cultured or harvested for assay use. A serial dilution of test compound is dispensed into a 96-well black clear bottom plate in triplicate. Two thousand five hundred cells are added per well in 200 μL complete growth medium in the 96-well plate. Plates are incubated for 67-72 hours at 37° C., 5% CO2, and 95% humidity. At the end of the incubation, 40 μL of a 440 μM solution of resazurin (Sigma, St. Louis, MO) in PBS is added to each well of the plate and plates are incubated for an additional 5-6 hours at 37° C., 5% CO2, and 95% humidity. Plates are read on a Synergy2 or equivalent reader (Biotek, Winooski VT) using an excitation of 540 nm and an emission of 600 nm. Data is analyzed using Prism software (GraphPad, San Diego, CA) to calculate IC50 values.

T1 sequence (P10398 with tags, fused parts or gaps Y301D/Y302D): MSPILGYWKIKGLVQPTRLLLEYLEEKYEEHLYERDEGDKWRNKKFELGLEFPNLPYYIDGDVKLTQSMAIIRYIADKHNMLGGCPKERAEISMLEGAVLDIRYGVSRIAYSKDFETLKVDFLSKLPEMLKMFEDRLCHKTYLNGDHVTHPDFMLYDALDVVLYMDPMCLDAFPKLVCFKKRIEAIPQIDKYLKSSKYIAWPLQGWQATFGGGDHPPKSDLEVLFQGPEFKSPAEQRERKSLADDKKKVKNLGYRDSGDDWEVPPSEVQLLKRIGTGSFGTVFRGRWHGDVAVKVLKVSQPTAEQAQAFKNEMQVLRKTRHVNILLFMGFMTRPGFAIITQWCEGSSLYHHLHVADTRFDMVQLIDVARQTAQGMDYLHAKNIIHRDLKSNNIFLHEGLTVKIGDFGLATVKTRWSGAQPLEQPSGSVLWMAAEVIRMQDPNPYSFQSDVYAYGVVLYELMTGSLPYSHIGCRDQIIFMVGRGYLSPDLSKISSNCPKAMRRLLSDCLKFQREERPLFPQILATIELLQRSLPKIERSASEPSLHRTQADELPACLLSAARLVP

Row | SMILES | IC50 [1] | IC50 [2] | IC50 [3] | IC50 [4] | IC50 [5]
1 | Cc1ccc(NC(=O)NCCC(C)(C)C)cc1-c1cc(-c2cnn(C)c2)nc(N2CCOCC2)c1 [Example 6] | > 1000 nM | 100 to 500 nM | 100 to 500 nM | ≤ 100 nM | 1000 to 10000 nM
2 | Cc1cc(F)c(NC(=O)NCCC(C)(C)C)cc1-c1cc(OCCO)nc(C2CCOCC2)c1 [Example 9] | > 1000 nM | ≤ 100 nM | ≤ 100 nM | ≤ 100 nM | 100 to 500 nM
3 | Cc1ccc(NC(=O)NCCC(C)(C)C)cc1-c1cc(N2CCOCC2)nc(N2CC(O)C2)n1 [Example 11] | > 1000 nM | 500 to 1000 nM | 100 to 500 nM | ≤ 100 nM | 1000 to 10000 nM
4 | Cc1ccc(NC(=O)NC2CCCCCC2)cc1-c1cc(OCCO)nc(N2CCOCC2)c1 [Example 13] | > 1000 nM | 100 to 500 nM | ≤ 100 nM | ≤ 100 nM | 1000 to 10000 nM
5 | Cc1ccc(NC(=O)N[C@@H]2CCc3ccccc32)cc1-c1cc(OCCO)nc(N2CCOCC2)c1 [Example 15] | > 1000 nM | 100 to 500 nM | ≤ 100 nM | ≤ 100 nM | 1000 to 10000 nM
6 | Cc1ncc(NC(=O)NCCC(C)(C)C)cc1-c1cc(N2CCOCC2)nc(N2CCOCC2)c1 [Example 19] | > 1000 nM | 500 to 1000 nM | 100 to 500 nM | ≤ 100 nM | 1000 to 10000 nM
7 | Cc1ccc(NC(=O)N[C@H]2CCc3ccccc32)cc1-c1cc(OCCO)nc(N2CCOCC2)c1 [Example 20] | > 1000 nM | 500 to 1000 nM | 100 to 500 nM | ≤ 100 nM | 500 to 1000 nM
8 | Cc1ccc(NC(=O)NCCC(C)(C)C#N)cc1-c1cc(-c2cnn(C)c2)nc(N2CCOCC2)c1 [Example 21] | > 1000 nM | 500 to 1000 nM | 100 to 500 nM | ≤ 100 nM | 1000 to 10000 nM
9 | Cc1cc(F)c(NC(=O)NCCC(C)(C)F)cc1-c1cc(OCCO)nc(-c2ccncc2)c1 [Example 25] | > 1000 nM | 100 to 500 nM | ≤ 100 nM | ≤ 100 nM | 1000 to 10000 nM
10 | Cc1cc(F)c(NC(=O)NCCC2(C(F)(F)F)CC2)cc1-c1cc(N2CCOCC2)nc(N2CC[C@H](N(C)C)C2)c1 [Example 26] | > 1000 nM | 100 to 500 nM | 100 to 500 nM | ≤ 100 nM | 1000 to 10000 nM
11 | CNc1cc(-c2cc(-c3cc(NC(=O)NCCC4(C)CC4)c(F)cc3C)cc(OCCO)n2)ccn1 [Example 27] | > 1000 nM | ≤ 100 nM | ≤ 100 nM | ≤ 100 nM | 500 to 1000 nM
12 | CNc1cc(-c2cc(-c3cc(NC(=O)NCCC4(C(F)(F)F)CC4)c(F)cc3C)cc(OCCO)n2)ccn1 [Example 28] | > 1000 nM | 100 to 500 nM | ≤ 100 nM | ≤ 100 nM | 100 to 500 nM
13 | Cc1cc(F)c(NC(=O)Nc2cnn(C(C)(C)C)c2)cc1-c1cc(OCCN(C)C)nc(N2CCOCC2)c1 [Example 29] | > 1000 nM | 500 to 1000 nM | 100 to 500 nM | ≤ 100 nM | 1000 to 10000 nM
14 | Cc1cc(F)c(NC(=O)NCCC2(C(F)(F)F)CC2)cc1-c1cc(N2CCOCC2)nc(N2CC(N(C)C)C2)n1 [Example 30] | > 1000 nM | > 1000 nM | 500 to 1000 nM | ≤ 100 nM | 1000 to 10000 nM
15 | Cc1cc(F)c(NC(=O)NCCC2(C)CC2)cc1-c1nc(NCCO)cc(N2CCOCC2)n1 [Example 31] | > 1000 nM | 100 to 500 nM | 100 to 500 nM | ≤ 100 nM | 1000 to 10000 nM
16 | Cc1cc(F)c(NC(=O)NCCC2(C)CC2)cc1-c1cc(OCCO)nc(-c2ccncc2)c1 [Example 32] | > 1000 nM | ≤ 100 nM | ≤ 100 nM | ≤ 100 nM | 1000 to 10000 nM
17 | Cc1cc(F)c(NC(=O)NCCC2(C)CC2)cc1-c1cc(OC2CCN(C)CC2)nc(-c2ccncc2)c1 [Example 36] | > 1000 nM | 100 to 500 nM | 100 to 500 nM | ≤ 100 nM | 1000 to 10000 nM
18 | Cc1ccc(NC(=O)NCCC2(C)CC2)cc1-c1cc(-c2cnn(C)c2)nc(N2CCOCC2)c1 [Example 37] | > 1000 nM | ≤ 100 nM | ≤ 100 nM | ≤ 100 nM | 1000 to 10000 nM
19 | Cc1cc(F)c(NC(=O)NC2CCC(F)(F)CC2)cc1-c1cc(-c2cnn(C)c2)nc(N2CCOCC2)c1 [Example 39] | > 1000 nM | ≤ 100 nM | ≤ 100 nM | ≤ 100 nM | 1000 to 10000 nM
20 | COC(C)(C)CCNC(=O)Nc1cc(-c2cc(OCCO)nc(-c3ccncc3)c2)c(C)cc1F [Example 40] | > 1000 nM | 100 to 500 nM | 100 to 500 nM | ≤ 100 nM | 1000 to 10000 nM
21 | Cc1cc(F)c(NC(=O)NCCC(C)(C)C#N)cc1-c1cc(OCCO)nc(-c2ccncc2)c1 [Example 41] | > 1000 nM | 100 to 500 nM | 100 to 500 nM | ≤ 100 nM | 1000 to 10000 nM
